Measurements from patent US20260021181A1, “CHIMERIC COSTIMULATORY RECEPTORS, CHEMOKINE RECEPTORS, AND THE USE OF SAME IN CELLULAR IMMUNOTHERAPIES” (Iovance Biotherapeutics, Inc., priority 2022, published 2026).
One block for each molecule: values may come before it.

Experiments:
TIL [1] = assay: Cytokine expression of TILs after overnight anti-CD3/CD28 bead stimulation; format: cell-based
Source text: Control or decitabine-treated cryopreserved TILs were thawed and stained for flow cytometry analysis.

TIL [2] = assay: AKT inhibitor (ipatasertib) added during ex vivo TIL expansion: expansion, viability, phenotype; format: cell-based
Description: Patient tumors from different indications were received, fragmented, and subjected to an expansion protocol for TIL manufacturing. Different doses (0.3 μM and 1 μM) of the pan-AKT inhibitor ipatasertib were added to the culture during ex vivo expansion. The expansion potential, as well as the phenotypic and functional characteristics were evaluated on the final TIL product. Eight tumors, including tumors from melanoma, NSCLC, head and neck cancer, ovarian cancer, and breast cancer, were used in combination with the Gen 2 process. […] Expansion, viability and T cell distribution in control and AKT inhibitor-treated TILs are shown. TILs were left untreated or treated with increasing concentrations of the pan-AKT inhibitor ipatasertib. Treatment was added either during the pre-REP and REP (blue bars) or during the REP stage only (purple bars). Fold expansion and viability of TIL at the end of the 22-day expansion process are shown. Frequency of CD8^+, CD4^+ and CD4^+ (Foxp3^+) cells after the expansion process on cryopreserved cells are also shown.

PD-L1 [3] = biological target: PD-L1 (Homo sapiens, UniProt Q9NZQ7); assay: Hek-IL-18 SEAP reporter assay of CCR8 and CCR8.2 stimulated with PD-L1; format: cell-based; conditions: 650 nm, IL-18 standard
Description: The biological function of the CCR constructs was tested with Hek-IL-18 SEAP reporter lines. CCR8 and CCR8.2 transduced HekIL-18 reporter cells (5×10^4) were stimulated with the indicated concentration of PD-L1 (His tagged) in the presence of anti-His antibody (antibody:protein ratio=2:1; e.g., for 5 μg/mL PD-L1, add 10 μg/mL anti-His antibody). After 24 hours, supernatants were harvested, and SEAP level was determined with a spectrophotometer at 650 nm after adding Quanti-blue solution. CCR12 and CCR12.2 transduced HekIL-18 reporter cells (5×10^4) were stimulated with the indicated concentration of TROP-2 (His tagged) in the presence of anti-His antibody (antibody:protein ratio=2:1). After 24 hours, supernatants were harvested, and SEAP level was determined with a spectrophotometer at 650 nm after adding Quanti-blue solution.

[4] = biological target: T1, human PD-L1 on hPD-L1 Raji cells (human, UniProt Q9NZQ7 19-290); assay: flow cytometry on hPD-L1 Raji cells, titration in the presence of the other antibody
T1 construct: whole, on cells

PD-L1 [5] = biological target: T2, PD-L1 (human, UniProt Q9NZQ7 19-238, limits assumed); assay: EC50 of anti-PD-L1 antibody clone; assay not given
T2 construct: also called hPD-L1; CD274
T2 sequence (Q9NZQ7 19-238 limits assumed): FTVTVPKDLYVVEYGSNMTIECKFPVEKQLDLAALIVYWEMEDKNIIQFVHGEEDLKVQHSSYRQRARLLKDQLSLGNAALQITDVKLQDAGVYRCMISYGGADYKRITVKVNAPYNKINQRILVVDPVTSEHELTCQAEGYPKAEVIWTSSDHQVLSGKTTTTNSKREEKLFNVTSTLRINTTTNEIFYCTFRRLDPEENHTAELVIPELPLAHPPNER

T1 sequence (Q9NZQ7 19-290): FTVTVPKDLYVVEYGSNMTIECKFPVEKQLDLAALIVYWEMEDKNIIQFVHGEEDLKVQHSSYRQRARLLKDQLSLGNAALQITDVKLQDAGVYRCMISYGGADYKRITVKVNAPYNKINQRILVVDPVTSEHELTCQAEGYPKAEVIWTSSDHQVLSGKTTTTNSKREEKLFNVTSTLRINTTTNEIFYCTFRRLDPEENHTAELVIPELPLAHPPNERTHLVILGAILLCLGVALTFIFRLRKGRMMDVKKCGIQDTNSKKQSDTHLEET
Chain of PD-L1 (Homo sapiens, UniProt Q9NZQ7) (Q9NZQ7 19-290): as above

Molecule: CC(C)NC[C@@H](C(=O)N1CCN(c2ncnc3c2[C@H](C)C[C@H]3O)CC1)c1ccc(Cl)cc1 [ipatasertib]
frequency of IFNγ+TNFα+CD8+ T cells (TIL [1]): increase
cytokine output following stimulation (TIL [1]; 1 μM at pre-REP and REP, anti-CD3/CD28 beads overnight, bead-to-cell ratio 1:5): higher cytokine output
IL-7R and CXCR3 expression on CD8+ TILs (TIL [2]): increase
TOX expression following stimulation (TIL [2]): lower
frequency of CD8+ TEMRA cells (TIL [2]): increase
frequency of less differentiated CD8+CD69−CD39− T cells on CD8+ and CD4+ TILs (TIL [2]): increases
expansion and viability of TILs relative to controls (TIL [2]; 1 μM dose): equivalent
expression of CD38 and transcription factors T-bet and TOX in CD39− CD69− cells (TIL [2]; 1 μM dose): reduced expression
population of less differentiated CD39− CD69− cells (TIL [2]; 1 μM dose): doubled
T cell ratios (CD8+, CD4+, CD4+ Foxp3+) (TIL [2]; after the expansion process): without affecting
TIL expansion and viability (TIL [2]; pre-REP and REP or REP only, end of 22-day expansion): maintains

Molecule: IL-18: IL-18 standard in Hek-IL-18 SEAP reporter assay
IL-18 stimulation equivalent to an OD value of 0.5 (PD-L1 [3]): about 3.175 pg/mL

B1: 38A1-IgG4-HA (antibody)
chain: EVQLVESGGGLVQPGGSLRLSCAASGFTFSNYAMSWVRQAPGKGLEWVSTISGSGGTTYYADSVKGRFTISRDNSKNTLYLQMNSLRVEDTAVYYCAKDWFRSSSPDAFDIWGQGTTVTVSAGGGGSGGGGSGGGGSGAPSYVLTQPPSVSVAPGQTARITCGGNNIGRKIVHWYQQRPGQAPVLVIYYDTDRPAGIPERFSGSNSGNMATLTISTVGAGDEADYYCQVWDTGSDHVVFGGGTKLTVL
notes: The order of the parts and the format (scFv-IgG4 Fc-HA) of the tested protein are not spelled out; Detected with anti-HA-APC; also called anti-PD-L1 Ab clone 38A1-IgG4-HA; scFv-Fc antibody 38A1; not shown: IgG4 part, known only from the name 38A1-IgG4-HA; HA tag
binding result [4]: binds

B2: 38A1-IgG4-HA (antibody)
chain: B1 chain
EC50 (PD-L1 [5]): 0.404 nM

Continued, values first:

EC50 (PD-L1 [5]): 0.125 nM
B3: 19H9-IgG4-Flag (antibody)
chain: QVQLQESGGGLVKPGGSLRLSCAASGFTFSSYSMNWVRQAPGKGLEWVSGINTAGDTHYPESVKGRFTISRDNARNSLNLQMNSLRAEDTAVYYCVRERVEREYSGYDAFDIWGQGTTVTVSAGGGGSGGGGSGGGGSGAPNFMLTQPHSVSESLGKTVTISCTGSSGSIARKFVQWYQQRPGSSPTTVIYENNQRPSGVSDRFSGSIGSSSNSASLTISGLKTEDEADYYCQSYDSSNVVFGGGTKVTVL

binding result [4]: binds
B4: 19H9-IgG4-Flag (antibody)
chain: B3 chain
notes: The order of the parts and the format of the tested protein are not spelled out; Detected with anti-Flag-AF488; also called 19H-IgG4-Flag; scFv-Fc antibody 19H9; not shown: IgG4 part, known only from the name 19H9-IgG4-Flag; Flag tag
